Like-named read-outs stand apart in the source and are kept apart here.
What was measured:
[1] = molecular target: T1, FABP1 (Homo sapiens, UniProt P07148); test: DAUDA displacement fluorescence titrations of DAUDA–FABP1 with fatty acids, fit in KinTek Explorer; assay type: binding
T1 construct: GST (N, cleaved yes); made in house; host or cells: Escherichia coli DH5α
T1 sequence (P07148 with tags, fused parts or gaps): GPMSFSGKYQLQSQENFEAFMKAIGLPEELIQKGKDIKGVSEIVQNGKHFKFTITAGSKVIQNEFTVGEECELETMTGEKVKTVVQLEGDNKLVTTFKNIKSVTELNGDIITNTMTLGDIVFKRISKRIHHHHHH
Description: The FABP–DAUDA system was used to screen saturated fatty acids (C12 to C18) for binding to FABP, and the Kd values were estimated in competition with the fluorophore (using its known Kd) with the kinetic modeling software KinTek Explorer. The general model is shown in Fig. 5A, where the substrate is competed against the fluorescent DAUDA–FABP1 complex for binding, yielding a ternary DAUDA–FABP1–substrate complex that is accompanied by an attenuation in fluorescence.
Figure 5 Fluorescence titrations of DAUDA–FABP1 with fatty acids (“forward” titrations).A, model of all binding equilibria accounted for in the DAUDA displacement assays. In the fluorescence assays (λex = 335 nm), DAUDA (D) binds to FABP1 (F) to form a fluorescent (indicated with yellow flash) complex (FD), with which a lipid (S) is then competed against for binding. The binding of S attenuates the fluorescence (denoted with a smaller yellow flash) and forms a ternary complex (FDS). High concentrations of S may completely displace D to form FSS, a spectroscopically silent complex. Using this method, fluorescence titrations were carried out with the fatty acids (B) laurate, (C) myristate, (D) palmitate, (E) 16-hydroxypalmitate, and (F) stearate. Fluorescence at the emission maximum (482 nm) was monitored (as in Fig. 4) and normalized to the starting fluorescence (i.e., the FD complex prior to the addition of S). Each data point corresponds to one independent replicate. DAUDA, 11-dansylaminoundecanoic acid; FABP1, fatty acid binding protein.
For the titrations with lipids, solutions of FABP1 (0.5 μM) and DAUDA (0.25 μM) were prepared such that the fluorescent species was not present in excess ([75]). A baseline was recorded with phosphate buffer, and a starting (basis) spectrum was recorded of the FABP–DAUDA complex (1 ml). The lipid solutions were gradually added to the cuvette with gentle mixing (pipetting up and down ∼7× with a pipette tip), and spectra were recorded (Fig. S12A). Control titrations were also performed the same day with solvent alone (Fig. S12B) as a normalizing factor for the lipid titrations as fluorescence attenuation was also observed to a much lesser degree as a solvent effect (Fig. S12C, D). […] The data were processed such that within the lipid titration and the solvent titration, the F482 values were normalized to the starting value (the initial FABP1–DAUDA complex with nothing added, set to 100%). The relative fluorescence of the lipid titration was then normalized to the relative fluorescence of the solvent titration to adjust for fluorescence attenuation observed in the solvent titration (presumably from altering the fluorophore environment). Thus, the data were processed according to y=(F482/F482(initial))lipid/(F482/F482(initial))solvent , and the resulting values were plotted as a function of lipid concentration (Fig. S12E). The curve was imported into KinTek Explorer ([76]) and was fit to a kinetic model (Fig. S13) to determine the Kd values (Table 1). Within the KinTek software, all fluorescent species required fluorescence scaling factors to convert signal to concentration. Scaling factors for the FABP–DAUDA complex, FABP–DAUDA–lipid complex, and DAUDA alone were 460, 92, and 8, respectively.
Figure S12. Data processing for FABP1 titration with palmitate. Fluorescence spectrum of increasing additions of (A) palmitate (0-2 µM, added in C2H5OH) and (B) C2H5OH to a mixture of DAUDA (0.25 µM) and FABP1 (0.5 µM), performed as described in the Experimental Methods (see “Titrations of FABP1 with lipids, DAUDA”). C, fluorescence values at 482 nm (F482) from the titrations presented in parts A and B are normalized to the starting values (DAUDA-FABP1 complex, no volume added). Data are reported as a function of volume of titrant added to the cuvette (black, C2H5OH alone; red, palmitate in C2H5OH). […]

[2] = molecular target: T1, FABP1; settings: human FABP1, fluorescence displacement assay; read-out: Kd; cited from earlier work
[3] = molecular target: T1, FABP1; set-up: method as in PMID 10852718; settings: ADIFAB system; cited from earlier work
[4] = molecular target: FABP3; set-up: method as in PMID 11170430; settings: human heart FABP (FABP3); cited from earlier work
[5] = molecular target: FABP1; set-up: method as in PMID 8541331; settings: bovine protein, cited from earlier work
[6] = molecular target: FABP1; set-up: method as in PMID 8940102; settings: rat protein, cited from earlier work
[7] = lipid binding to DAUDA-bound FABP1 (DAUDA displacement), read-out: Kd, FD + S ↔ FDS
[8] = lipid binding to apo-FABP1, estimated via kinetic modeling, read-out: Kd, F + S ↔ FS
[9] = lipid binding to ternary complex FDS (full displacement of DAUDA), low-affinity site, read-out: Kd, FDS + S ↔ FSS + D
[10] = high-affinity site, read-out: Kd,1
[11] = low-affinity site, read-out: Kd,2

SMILES: CCCCCCCCCCCCCC(=O)O [Myristate (C14), myristate]
- Kd [1, 7]: 0.86 µM
- Kd [1, 8]: 2.6 µM
- Kd [1, 9]: 43 µM
- remaining activity at 0.01 µM ([1]; read-out: % Fluorescence): 98.3%
- remaining activity at 0.03 µM ([1]; read-out: % Fluorescence): 99.1%
- remaining activity at 0.06 µM ([1]; read-out: % Fluorescence): 98.2%
- remaining activity at 0.1 µM ([1]; read-out: % Fluorescence): 97.3%
- remaining activity at 0.3 µM ([1]; read-out: % Fluorescence): 92.9%
- remaining activity at 0.6 µM ([1]; read-out: % Fluorescence): 81%
- remaining activity at 1 µM ([1]; read-out: % Fluorescence): 71.9%
- remaining activity at 3 µM ([1]; read-out: % Fluorescence): 42.2%
- remaining activity at 6 µM ([1]; read-out: % Fluorescence): 25.9%
- remaining activity at 10 µM ([1]; read-out: % Fluorescence): 18.2%
- remaining activity at 30 µM ([1]; read-out: % Fluorescence): 13.1%
- koff ([1]; read-out: koff, F + S ↔ FS): 240 s⁻¹
- koff ([1]; read-out: koff, FD + S ↔ FDS): 20 s⁻¹
- koff ([1]; read-out: koff, FDS + S ↔ FSS + D): 980 s⁻¹

SMILES: CCCCCCCCCCCCCCCCCC(=O)O [Stearate (C18), stearate]
- Kd [2]: 0.029 ± 0.002 µM
- Kd [3]: 0.023 µM
- remaining activity at 0.01 µM ([1]; lipid 0.01 µM, FABP1 0.5 µM, DAUDA 0.25 µM, F482 normalized, read-out: % Fluorescence): 92.3%
- remaining activity at 0.025 µM ([1]; lipid 0.025 µM, FABP1 0.5 µM, DAUDA 0.25 µM, F482 normalized): 92.5%
- remaining activity at 0.05 µM ([1]; lipid 0.05 µM, FABP1 0.5 µM, DAUDA 0.25 µM, F482 normalized): 87.6%
- remaining activity at 0.075 µM ([1]; lipid 0.075 µM, FABP1 0.5 µM, DAUDA 0.25 µM, F482 normalized): 81.3%
- remaining activity at 0.1 µM ([1]; lipid 0.1 µM, FABP1 0.5 µM, DAUDA 0.25 µM, F482 normalized, read-out: % Fluorescence): 78.3%
- remaining activity at 0.15 µM ([1]; lipid 0.15 µM, FABP1 0.5 µM, DAUDA 0.25 µM, F482 normalized): 69.4%
- remaining activity at 0.2 µM ([1]; lipid 0.2 µM, FABP1 0.5 µM, DAUDA 0.25 µM, F482 normalized): 61%
- remaining activity at 0.25 µM ([1]; lipid 0.25 µM, FABP1 0.5 µM, DAUDA 0.25 µM, F482 normalized): 54.2%
- remaining activity at 0.35 µM ([1]; lipid 0.35 µM, FABP1 0.5 µM, DAUDA 0.25 µM, F482 normalized): 44.4%
- remaining activity at 0.45 µM ([1]; lipid 0.45 µM, FABP1 0.5 µM, DAUDA 0.25 µM, F482 normalized): 37.1%
- remaining activity at 0.6 µM ([1]; lipid 0.6 µM, FABP1 0.5 µM, DAUDA 0.25 µM, F482 normalized, read-out: % Fluorescence): 31.3%
- remaining activity at 0.9 µM ([1]; lipid 0.9 µM, FABP1 0.5 µM, DAUDA 0.25 µM, F482 normalized): 24.2%
- remaining activity at 1.15 µM ([1]; lipid 1.15 µM, FABP1 0.5 µM, DAUDA 0.25 µM, F482 normalized): 24.1%
- remaining activity at 1.4 µM ([1]; lipid 1.4 µM, FABP1 0.5 µM, DAUDA 0.25 µM, F482 normalized): 23.6%
- remaining activity at 1.9 µM ([1]; lipid 1.9 µM, FABP1 0.5 µM, DAUDA 0.25 µM, F482 normalized): 23.3%
- koff ([1]; lipid (S) binding to apo-FABP1 (F), kinetic modeling, on-rate 9.0 × 10^7 M^−1 s^−1, read-out: koff, F + S ↔ FS): 6.2 s⁻¹
- Kd [1, 7]: 0.021 µM
- koff ([1]; lipid binding to DAUDA-bound FABP1 (FD), on-rate 2.3 × 10^7 M^−1 s^−1, read-out: koff, FD + S ↔ FDS): 0.48 s⁻¹
- Kd [1, 8]: 0.069 µM
- Kd [1, 9]: 34 µM
- koff ([1]; lipid binding to ternary complex FDS (full displacement of DAUDA), read-out: koff, FDS + S ↔ FSS + D): 770 s⁻¹

SMILES: CCCCC/C=C\C/C=C\C/C=C\C/C=C\CCCC(=O)O [arachidonate]
- Kd [4]: ~0.05 µM

SMILES: CCCCCCCC/C=C\CCCCCCCC(=O)O [oleate]
- Kd [5, 10]: 0.26 µM
- Kd [5, 11]: > 5 µM

SMILES: CCCCC/C=C\C/C=C\CCCCCCCC(=O)O [linoleate]
- Kd [6, 10]: ~0.01 µM
- Kd [6, 11]: ~0.2 µM

SMILES: CCCCCCCCCCCC(=O)O [Laurate (C12), laurate]
- % Fluorescence ([1]; lipid 1 µM, FABP1 0.5 µM, DAUDA 0.25 µM, F482 normalized): 94.95%
- % Fluorescence ([1]; lipid 2 µM, FABP1 0.5 µM, DAUDA 0.25 µM, F482 normalized): 89.77%
- % Fluorescence ([1]; lipid 3.5 µM, FABP1 0.5 µM, DAUDA 0.25 µM, F482 normalized): 89.03%
- % Fluorescence ([1]; lipid 5 µM, FABP1 0.5 µM, DAUDA 0.25 µM, F482 normalized): 85.89%
- % Fluorescence ([1]; lipid 7.5 µM, FABP1 0.5 µM, DAUDA 0.25 µM, F482 normalized): 85.69%
- % Fluorescence ([1]; lipid 10 µM, FABP1 0.5 µM, DAUDA 0.25 µM, F482 normalized): 75.3%
- % Fluorescence ([1]; lipid 20 µM, FABP1 0.5 µM, DAUDA 0.25 µM, F482 normalized): 57.47%
- % Fluorescence ([1]; lipid 35 µM, FABP1 0.5 µM, DAUDA 0.25 µM, F482 normalized): 47.27%
- % Fluorescence ([1]; lipid 50 µM, FABP1 0.5 µM, DAUDA 0.25 µM, F482 normalized): 41.27%
- % Fluorescence ([1]; lipid 75 µM, FABP1 0.5 µM, DAUDA 0.25 µM, F482 normalized): 35.15%
- % Fluorescence ([1]; lipid 100 µM, FABP1 0.5 µM, DAUDA 0.25 µM, F482 normalized): 31.33%
- % Fluorescence ([1]; lipid 125 µM, FABP1 0.5 µM, DAUDA 0.25 µM, F482 normalized): 28.58%
- % Fluorescence ([1]; lipid 150 µM, FABP1 0.5 µM, DAUDA 0.25 µM, F482 normalized): 29.65%
- % Fluorescence ([1]; lipid 200 µM, FABP1 0.5 µM, DAUDA 0.25 µM, F482 normalized): 27.61%
- % Fluorescence ([1]; lipid 300 µM, FABP1 0.5 µM, DAUDA 0.25 µM, F482 normalized): 25.74%
- % Fluorescence ([1]; lipid 400 µM, FABP1 0.5 µM, DAUDA 0.25 µM, F482 normalized): 23.15%
- koff, F + S ↔ FS ([1]; lipid (S) binding to apo-FABP1 (F), kinetic modeling, on-rate 9.0 × 10^7 M^−1 s^−1): 2700 s⁻¹
- Kd [1, 7]: 18 µM
- koff, FD + S ↔ FDS ([1]; lipid binding to DAUDA-bound FABP1 (FD), on-rate 2.3 × 10^7 M^−1 s^−1): 410 s⁻¹
- Kd [1, 8]: 30 µM
- Kd [1, 9]: > 1000 µM

SMILES: O=C(O)CCC/C=C\C/C=C\C/C=C\C/C=C\CCCCCO [20-HETE, 20-hydroxyeicosatetraenoic acid]
- Kd [4]: ~0.44 µM

Source: paper PMC11847541, “Liver fatty acid binding protein FABP1 transfers substrates to cytochrome P450 4A11 for catalysis” (The Journal of Biological Chemistry, 2025)
